Data reported in article PMC9415646, “Improving Aqueous Solubility and In Vitro Pharmacokinetic Properties of the 3-Nitroimidazo[1,2-a]pyridine Antileishmanial Pharmacophore” (Pharmaceuticals, 2022).
Read-outs that look alike come from different tables or passages of the source.

What was measured:
[1] = system: L. donovani promastigotes; experiment: Antileishmanial activity against L. donovani promastigotes (MTT assay); format: cell-based; settings: Leishmania donovani, 72 h, read-out: EC50 L. donovani Pro.
Procedure: The Leishmania species used in this study were L. donovani (MHOM/IN/00/DEVI) purchased from CNR Leishmania (Montpellier, France). Leishmania promastigote forms were grown in Schneider’s Drosophila medium (Life Technologies, Saint-Aubin, France) supplemented with 100 U/mL penicillin, 100 µg/mL streptomycin, 2 mM L-glutamine and 20% FCS (Life Technologies, Saint-Aubin, France) at 27 °C. The in vitro evaluation of the tested compound’s antileishmanial activity on promastigote forms was carried out by MTT assay according to the Mosmann protocol with some modifications. Briefly, promastigotes in log-phase were incubated at an average density of 10^6 parasites/mL in sterile 96-well plates with various concentrations of compound dissolved in DMSO (final concentration less than 0.5% v/v), in duplicate. Appropriate controls treated with DMSO, Miltefosine, Amphotericin B, Fexinidazole, and Fexinidazole sulfone (reference drugs purchased from Sigma-Aldrich, Saint-Louis, Missouri, USA) were added to each set of experiments. After a 72 h incubation period at 27 °C, parasitic metabolic activity was determined. Each plate-well was then microscope-analyzed to detect any precipitate formation. 20 µL of MTT (3-(4,5-dimethylthiazol-2-yl)-2,5-diphenyltetrazolium bromide) (Sigma-Aldrich, Saint-Louis, Missouri, USA) solution (5 mg/mL in PBS) were added to each well and incubated for 4 h at 27 °C. The enzyme reaction was then stopped by addition of 100 µL of 50% isopropanol–10% sodium dodecyl sulfate. Plates were shaken vigorously at 300 rpm for 10 min. The absorbance was measured at 570 nm in a BIO-TEK Elx808 (Biotek, Colmar, France) absorbance microplate reader. […] EC50 values were calculated by non-linear regression analysis processed dose-response curves, using TableCurve 2D V5.0 software (Systat Software Inc. (Palo Alto, CA, USA)). EC50 values represent the mean value calculated from at least three separate experiments.

[2] = system: L. infantum axenic amastigotes; experiment: Antileishmanial activity on L. infantum axenic amastigotes (luciferase assay); format: cell-based; settings: Leishmania infantum, 48 h, read-out: EC50 L. infantum Axenic Ama.
Procedure: L. infantum promastigotes were harvested in logarithmic phase of growth by centrifugation at 900× g for 10 min. The supernatant was removed carefully and was replaced by the same volume of RPMI 1640 complete medium at pH 5.4 and incubated for 24 h at 24 °C. The acidified promastigotes were then incubated for 24 h at 37 °C in a ventilated flask to transform them into axenic amastigotes. The amastigote stage was checked both by electron microscopy (short flagellum with small bulbous tip extending beyond a spherical cell body) and RT-PCR to confirm the overexpression of ATG8 and amastin genes in amastigotes, relative to promastigotes. The effects of the tested compounds on the growth of L. infantum axenic amastigotes were assessed as follows. L. infantum amastigotes were incubated at a density of 2 × 10^6 parasites/mL in sterile 96-well plates with various concentrations of compounds dissolved in DMSO (final concentration less than 0.5% v/v), in duplicate. Appropriate controls treated with DMSO, amphotericin B, miltefosine, fexinidazole and fexinidazole sulfone were added to each set of experiments. After a 48 h incubation period at 37 °C, each plate-well was then microscopically examined to detect any precipitate formation.
(§1) • Luciferase activity and determination of EC50 were performed as above.

[3] = Cytotoxicity on THP-1 cell line (MTT); format: cell-based; settings: human, THP-1 cells, THP1 cell line
Procedure: The plates were incubated for 72 h at 37 °C. Each well plate was then microscope-examined for detecting possible precipitate formation before the medium was aspirated from the wells. 100 µL of MTT solution (0.5 mg/mL in medium) were then added to each well. Cells were incubated for 2 h at 37 °C. […] Plates were shaken vigorously (300 rpm) for 10 min. The absorbance was measured at 570 nm using a BIO-TEK ELx808 Absorbance Microplate Reader. DMSO was used as blank and doxorubicin (purchased from Sigma Aldrich) as positive control. Cell viability was calculated as percentage of control (cells incubated with DMSO). […] (Palo Alto, CA, USA). CC50 values represent the mean value calculated from three separate experiments.

[4] = system: L. infantum intracellular amastigotes; experiment: Antileishmanial activity on L. infantum intracellular (intra-THP1 macrophage) amastigotes; format: cell-based; settings: Leishmania infantum, THP-1; intramacrophage (THP1) amastigotes, 120 h; read-out: EC50 L. infantum Intra. Ama.
Procedure: The undifferentiated THP1 human monocyte cells (acute monocytic leukemia cell line purchased from ATCC, ref TIB-202) were grown in RPMI 1640 medium (Life Technologies, Saint-Aubin, France) supplemented with 10% FCS (Life Technologies, Saint-Aubin, France), 100 U/mL penicillin, 100 µg/mL streptomycin and 2 mM L-glutamine at 37 °C, 5% CO2. The culture was maintained between 3.10^5 and 1.10^6 cells/mL. The in vitro evaluation of the antileishmanial activity on intracellular amastigote forms of the tested compound was assessed as below.
Briefly, 200 μL of THP-1 cells with Phorbol 12-Myristate 13-Acetate (final concentration 50 ng/mL) were seeded in 96-well plates at an average density of 0.77 × 10^5 cells/mL and incubated for 96 h at 37 °C, 5% CO2. Promastigotes were centrifuged at 3000 rpm for 10 min and the supernatant replaced by the same volume of complete RPMI pH 5.4 and incubated for 24 h at 27 °C. Differentiated THP-1 cells were then infected by acidified promastigotes with an infection ratio of twenty parasites for one macrophage and incubated for 24 h at 37 °C, 5% CO2.
as §1

[5] = system: L. infantum promastigotes; experiment: Antileishmanial activity against L. infantum promastigotes (luciferase assay); format: cell-based; settings: Leishmania infantum, 72 h, read-out: EC50 L. infantum Pro.
Procedure: L. infantum promastigotes (MHOM/MA/67/ITMAP-263, CNR Leishmania, Montpellier, France, expressing luciferase activity) were used in the following tests. The effects of the tested compounds on the growth of L. infantum promastigotes were assessed by Luciferase Assay. Briefly, promastigotes in log-phase in RPMI 1640 medium supplemented with 10% fetal calf serum (FCS), 2 mM L-glutamine and antibiotics (100U/mL penicillin, 100 µg/mL streptomycin and 50µg/mL geneticin), were incubated at an average density of 10^6 parasites/mL (100 µL/well) in sterile 96-well plates with various concentrations of compounds dissolved in DMSO (final concentration less than 0.5% v/v), in duplicate. Appropriate controls (100 µL/well) treated by DMSO and reference drugs (purchased for the majority from Sigma Aldrich) were added to each set of experiments. After a 72 h incubation period at 24 °C, each plate-well was then microscope-examined for detecting possible precipitate formation. To estimate the luciferase activities of promastigotes, 80 µL of each well are transferred in white 96-well plates, Steady Glow reagent (Promega) was added according to manufacter’s instructions, and plates were incubated for 2 min. The luminescence was measured in a FLUOstar Omega (BMG Labtech, Champigny-sur-Marne, France). […] EC50 were calculated by non-linear regression analysis processed on dose–response curves, using TableCurve 2D V5 software.

[6] = Cytotoxicity evaluation on HepG2 cell line (MTT); format: cell-based; settings: human, HepG2 cells
Procedure: The tested molecules’ cytotoxicity was assessed according to the method of Mosmann with slight modifications. […] Triplicate assays were performed for each sample. Each plate-well was then microscope-examined to detect possible precipitate formation before the medium was aspirated from the wells. 100 µL of MTT (3-(4,5-dimethyl-2-thiazolyl)-2,5-diphenyl-2H-tetrazolium bromide) solution (0.5 mg/mL in medium without FCS) were then added to each well. […] Plates were shaken vigorously (700 rpm) for 10 min. The absorbance was measured at 570 nm with 630 nm as reference wavelength using a BIO-TEK ELx808 Absorbance Microplate Reader. DMSO was used as blank and doxorubicin (purchased from Sigma Aldrich) as positive control. Cell viability was calculated as percentage of control (cells incubated without compound). […] (Palo Alto, CA, USA)). CC50 values represent the mean value calculated from three separate experiments.

[7] = system: T. b. brucei BSF trypomastigotes; experiment: Antitrypanosomal evaluation on T. b. brucei BSF trypomastigotes (Alamar Blue); format: cell-based; settings: Trypanosoma brucei, trypomastigote blood stream form
Procedure: The effects of the tested compounds on the growth of T. b. brucei were assessed by Alamar Blue® assay described by Räz et al. T. b. brucei AnTat 1.9 (IMTA, Antwerpen, Belgium) was cultured in MEM with Earle’s salts, supplemented according to the protocol of Baltz et al. with the following modifications: 0.5 mM mercaptoethanol (Sigma Aldrich®, France), 1.5 mM L-cysteine (Sigma Aldrich®), 0.05 mM bathocuproïne sulfate (Sigma Aldrich®) and 20% heat-inactivated horse serum (Gibco®, France), at 37 °C and 5% CO2. They were incubated at an average density of 2000 parasites/100 µL in sterile 96-wells plates (Fisher®, France) with various concentrations of compounds dissolved in DMSO, in duplicate. Appropriate controls suramin, treated with sterile water, and fexinidazole, treated with DMSO on sterile water (reference drugs purchased from Sigma Aldrich, France and Fluorochem, UK) were added to each set of experiments. After a 69 h incubation period at 37 °C, 10 µL of the viability marker Alamar Blue® (Fisher, France) were then added to each well, and the plates were incubated for 5 h. The plates were read in a ENSPIRE microplate reader (PerkinElmer, Waltham, MA, USA) using an excitation wavelength of 530 nm and an emission wavelength of 590 nm. […] EC50 were calculated by nonlinear regression analysis processed on dose-response curves, using GraphPad Prism software (USA). EC50 values were calculated from three separate experiments.

SMILES	EC50 ([1]; promastigotes, MTT) [µM]	EC50 [2] [µM]	CC50 at 72 h [3] [µM]	EC50 [4] [µM]	EC50 [5] [µM]	melting point [°C]	CC50 at 72 h [6] [µM]	EC50 [1] [µM]	EC50 [7] [µM]
O=[N+]([O-])c1c(CS(=O)(=O)CCC(F)(F)F)nc2c([S+]([O-])c3ccc(Cl)cc3)cc(Cl)cn12 (stereo not drawn) [Compound 6a, 6-Chloro-8-[(4-Chlorophenyl)sulfinyl]-3-Nitro-2-[(3,3,3-Trifluoropropylsulfonyl)methyl] imidazo[1,2-a]pyridine]	1.9 ± 0.3	5 ± 0.1	> 100	3.3 ± 0.2	7.4 ± 0.4	221	> 5	–	–
C[C@@H]1[C@H](O)[C@@H](C)/C=C/C=C/C=C/C=C/C=C/C=C/C=C/[C@H](O[C@@H]2O[C@H](C)[C@@H](O)[C@H](N)[C@@H]2O)C[C@@H]2O[C@](O)(C[C@@H](O)C[C@@H](O)[C@H](O)CC[C@@H](O)C[C@@H](O)CC(=O)O[C@H]1C)C[C@H](O)[C@H]2C(=O)O [Amphotericin B, reference compound]	–	0.08 ± 0.02	12.1 ± 1.3	0.06 ± 0.01	0.04 ± 0.01	–	–	0.07 ± 0.01	–
CCCCCCCCCCCCCCCCOP(=O)([O-])OCC[N+](C)(C)C [Miltefosine, reference compound]	–	0.3 ± 0.02	28.1 ± 3.4	0.4 ± 0.14	18.2 ± 0.5	–	–	–	–
O=[N+]([O-])c1c(CS(=O)(=O)c2ccc(O)cc2)nc2c(Br)cc(Cl)cn12 [Compound 2c, 4-{[(8-Bromo-6-Chloro-3-Nitroimidazo[1,2-a]pyridin-2-yl)methyl]sulfonyl}phenol]	> 3.1	> 5	> 100	–	> 100	242	> 3.9	–	0.4 ± 0.03
Cc1ccc(C(=O)Nc2ccc(S(=O)(=O)O)c3cc(S(=O)(=O)O)cc(S(=O)(=O)O)c23)cc1NC(=O)c1cccc(NC(=O)Nc2cccc(C(=O)Nc3cc(C(=O)Nc4ccc(S(=O)(=O)O)c5cc(S(=O)(=O)O)cc(S(=O)(=O)O)c45)ccc3C)c2)c1 [Suramin, reference compound]	–	–	–	–	–	–	> 100	–	0.08 ± 0.04
Cn1c([N+](=O)[O-])cnc1COc1ccc(S(C)(=O)=O)cc1 [Fexinidazole sulfone, reference compound]	1.2 ± 0.2	4.3 ± 0.1	> 100	17.8 ± 1.4	1.1 ± 0.1	–	–	–	–
